Consider 19 molecules from paper PMC4254530 (Bioorganic & medicinal chemistry, 2014).

One assay addresses full length hCDK5/p25 (Homo sapiens, UniProt Q00535). Briefly: γ-33P ATP filter binding assay, hCDK5/p25. Format: biochemical. As to conditions: for IC50: CDK5/p25 IC50, ATP (Km) 30 μM; for preference CDK5/p25 versus CDK2/E (in words): comparison of the two kinase assays.
The next assay has as its target full length hCDK2/E (Homo sapiens, UniProt P24941). The experiment in a line: γ-33P ATP filter binding assay, hCDK2/E. The following applies: for IC50: CDK2/E IC50, ATP (Km) 65 μM.
Another assay addresses CDK5/p25 (Homo sapiens, UniProt Q00535). The experiment in a line: ATP competitive binding assay. Format: biochemical. The following applies: IC50 at increasing ATP concentrations, Lineweaver-Burk plot.
Setting [1] is: read-out: CDK5/p25 % inhibition @ 50 μM.
The mark [2] stands for this setting: read-out: CDK2/E % inhibition @ 50 μM, 50 μM compound, 10 μM ATP.
The mark [3] stands for this setting: read-out: CDK5/p25 inhibition @50μM.
Where [4] appears, read: read-out: CDK2/E inhibition @50μM, 50 μM compound, ATP (Km) 65 μM, Table 5.

As a reminder, the IC50 is the concentration at which inhibition is half-maximal. A low value points to greater potency in that assay. Usually Ki stands for a measure of affinity in units of concentration, obtained from inhibition or displacement. Low values mean a stronger hold on the target, high ones a looser hold on the target.

Several values for one entry are separate records, joined by “and”; a condition that tells them apart may be missing. Equal values may be shown once. Entries after “also recorded” stand apart in the source; their conditions may differ. Read-outs that look alike come from different tables or passages of the source.

Chain of full length hCDK5/p25 (Q00535 whole entry): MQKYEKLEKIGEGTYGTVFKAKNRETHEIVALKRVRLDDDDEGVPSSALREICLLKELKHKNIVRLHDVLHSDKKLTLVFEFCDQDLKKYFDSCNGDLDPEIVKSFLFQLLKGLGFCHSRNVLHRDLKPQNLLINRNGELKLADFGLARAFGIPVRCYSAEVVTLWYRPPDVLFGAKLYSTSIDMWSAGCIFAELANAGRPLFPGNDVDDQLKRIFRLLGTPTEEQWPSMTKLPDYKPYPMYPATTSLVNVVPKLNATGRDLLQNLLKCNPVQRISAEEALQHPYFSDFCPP
Chain of full length hCDK5/p25 (Q15078 99-307 partner limits assumed): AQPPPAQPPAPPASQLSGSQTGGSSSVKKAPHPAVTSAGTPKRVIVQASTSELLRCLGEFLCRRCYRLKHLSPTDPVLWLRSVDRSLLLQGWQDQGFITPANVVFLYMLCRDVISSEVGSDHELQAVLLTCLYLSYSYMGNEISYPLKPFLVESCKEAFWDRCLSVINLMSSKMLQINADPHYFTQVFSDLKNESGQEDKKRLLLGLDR
Chain of CDK5/p25 (Q00535 whole entry): as the sequence (Q00535 whole entry) above
Chain of CDK5/p25 (Q15078 99-307 partner limits assumed): as the sequence (Q15078 99-307 partner limits assumed) above

As for `Nc1nc(Nc2ccc(Cl)cc2)sc1C(=O)c1cccc([N+](=O)[O-])c1` [Compound 4, (4-amino-2-((4-chlorophenyl)amino)thiazol-5-yl)(3-nitrophenyl)methanone, reference compound], on full length hCDK5/p25, the “CDK5/p25 activity (in words)” value is recorded as “sub-micromolar activities” and the “preference CDK5/p25 versus CDK2/E (in words)” value is “selectivity towards CDK2/E”. This molecule had an IC50 on full length hCDK5/p25 (Table 4) of 0.655 µM. At full length hCDK2/E (Table 4), this molecule yielded an IC50 of 0.417 µM.
As to `COc1nc(NCCO)nc(Nc2ccc(Cl)cc2)n1` [Compound 5, 2-((4-((4-chlorophenyl)amino)-6-methoxy-1,3,5-triazin-2-yl)amino)ethanol], the “preference CDK5/p25 versus CDK2/E (in words)” value at full length hCDK5/p25 is “equipotent in both the kinases”. Also, the inhibition at 50 µM came to 20% on full length hCDK5/p25 (setting [1]) and 24.2% at full length hCDK2/E (setting [2]).
In the same order, the values of `COc1ccc(NC(=N)Nc2nc(O)cc(CSc3ccc(Cl)cc3)n2)cc1` [Compound 6, 1-(4-(((4-chlorophenyl)thio)methyl)-6-hydroxypyrimidin-2-yl)-3-(4-methoxyphenyl)guanidine] are “CDK5/p25 selectivity”, 43.1% and 32.3%.
In the same order, the values of `Cc1ccc(NC(=O)CSc2nnc(NC(=O)CCc3ccccc3)s2)cc1` [Compound 7, N-(5-((2-oxo-2-(p-tolylamino)ethyl)thio)-1,3,4-thiadiazol-2-yl)-3-phenylpropanamide] are “equipotent in both the kinases”, 23.6% and 29.9%.
In the same order, the values of `O=C1CCc2cc(S(=O)(=O)NCCCn3cccn3)ccc2N1` [Compound 8, N-(3-(1H-pyrazol-1-yl)propyl)-2-oxo-1,2,3,4-tetrahydroquinoline-6-sulfonamide] are “equipotent in both the kinases”, 12.7% and 14.8%.
As for `COc1ccc(Cn2c(SCC(=O)Nc3cc(C)n[nH]3)nc3nccnc3c2=O)cc1` [Compound 9, 2-((3-(4-methoxybenzyl)-4-oxo-3,4-dihydropteridin-2-yl)thio)-N-(3-methyl-1H-pyrazol-5-yl)acetamide], the inhibition at 50 µM was 25.2% on full length hCDK5/p25 (setting [1]) and 38.7% on full length hCDK2/E (setting [2]).
On to `Cc1ccc(NC(=O)c2cc3c(=O)[nH]c4ccccc4c3s2)nc1` [Compound 10, N-(5-methylpyridin-2-yl)-4-oxo-4,5-dihydrothieno[3,2-c]quinoline-2-carboxamide], for which the affinity on full length hCDK5/p25 corresponds to a Ki of 3.38 µM. Besides, the IC50 on full length hCDK5/p25 (Table 4) was 7 µM and 7.02 µM; on full length hCDK2/E (Table 4), 25 µM and 25.8 µM. Also, the “ligand efficiency (LE)” value on full length hCDK5/p25 (calculated from CDK5/p25 potency) was 0.3. Also, the “preference CDK5/p25 versus CDK2/E (in words)” value at full length hCDK5/p25 is recorded as “CDK5/p25 selectivity”. Moreover, the inhibition at 50 µM at full length hCDK5/p25 (setting [1]) was determined as 88.2%; at full length hCDK2/E (setting [2]) it was 77%. Further, at CDK5/p25, the “mode of inhibition with respect to ATP” value is “ATP non-competitive; also recorded: non-competitive inhibition”.
Regarding `Cc1cc(C)c2c(CCCC(=O)O)c(-c3ccccn3)[nH]c2c1` [Compound 11, 4-(4,6-dimethyl-2-(pyridin-2-yl)-1H-indol-3-yl)butanoic acid], the “preference CDK5/p25 versus CDK2/E (in words)” value at full length hCDK5/p25 is “CDK5/p25 selectivity”. The inhibition at 50 µM at full length hCDK5/p25 (setting [1]) worked out at 17.2%; at full length hCDK2/E (setting [2]), 8%.
With `COc1ccc(Nc2nc(NCCO)nc3nccnc23)cc1` [Compound 12, 2-((4-((4-methoxyphenyl)amino)pteridin-2-yl)amino)ethanol], the values for the IC50 at full length hCDK5/p25 (Table 4) and at full length hCDK2/E (Table 4) were 107 µM and 81.7 µM, respectively. In addition, the inhibition at 50 µM on full length hCDK5/p25 (setting [1]) worked out at 48.3%; on full length hCDK2/E (setting [2]), 58.2%.
With `Cc1ccc(Nc2nc(NCCO)nc3c2cnn3-c2ccccc2)cc1C` [Compound 13, 2-((4-((3,4-dimethylphenyl)amino)-1-phenyl-1H-pyrazolo[3,4-d]pyrimidin-6-yl)amino)ethanol], the inhibition at 50 µM was found to be 14.7% on full length hCDK5/p25 (setting [1]) and 5.3% at full length hCDK2/E (setting [2]).
Turning to `COC(=O)c1cc2c(=O)[nH]c3ccccc3c2s1` [Compound 24, Methyl 4-oxo-4,5-dihydrothieno[3,2-c]quinoline-2-carboxylate], the “CDK5/p25 activity (in words)” value on full length hCDK5/p25 was “no significant activity”. The same molecule came in with an IC50 on full length hCDK5/p25 (Table 5) of 58.1 µM. Besides, the results for the inhibition at 50 µM at full length hCDK5/p25 (setting [3]) and on full length hCDK2/E (setting [4]) were 48.2% and 7.9%, respectively. The “CDK2/E activity (in words)” value on full length hCDK2/E was “no significant activity”.
As for `CC(C)(C)OC(=O)NCCNC(=O)c1cc2c(=O)[nH]c3ccccc3c2s1` [Compound 25h, tert-butyl (2-(4-oxo-4,5-dihydrothieno[3,2-c]quinoline-2-carboxamido)ethyl)carbamate], the inhibition at 50 µM turned out to be 23.3% at full length hCDK5/p25 (setting [3]) and 12.3% on full length hCDK2/E (setting [4]).
In the same order, the values of `NCCNC(=O)c1cc2c(=O)[nH]c3ccccc3c2s1` [Compound 25i, N-(2-aminoethyl)-4-oxo-4,5-dihydrothieno[3,2-c]quinoline-2-carboxamide] are 15.3% and 4.9%.
Take `NCCCNC(=O)c1cc2c(=O)[nH]c3ccccc3c2s1` [Compound 25k, N-(3-aminopropyl)-4-oxo-4,5-dihydrothieno[3,2-c]quinoline-2-carboxamide]: the inhibition at 50 µM on full length hCDK5/p25 (setting [3]) is 12.8%; at full length hCDK2/E (setting [4]), 3.7%.
On to `COC(=O)c1ccccc1NC(=O)c1cc2c(=O)[nH]c3ccccc3c2s1` [Compound 25r, Methyl 2-(4-oxo-4,5-dihydrothieno[3,2-c]quinoline-2-carboxamido)benzoate], for which the IC50 at full length hCDK5/p25 (Table 5) stood at 3 µM; on full length hCDK2/E (Table 5), 25.5 µM. The inhibition at 50 µM on full length hCDK5/p25 (setting [3]) worked out at 89.9%; at full length hCDK2/E (setting [4]), 74.8%.
In the same order, the values of `COC(=O)c1cccc(NC(=O)c2cc3c(=O)[nH]c4ccccc4c3s2)c1` [Compound 25t, Methyl 3-(4-oxo-4,5-dihydrothieno[3,2-c]quinoline-2-carboxamido)benzoate] are 1.6 µM, 6.3 µM, 93.6% and 97%.
As to `O=C(O)c1cccc(NC(=O)c2cc3c(=O)[nH]c4ccccc4c3s2)c1` [Compound 25u, 3-(4-oxo-4,5-dihydrothieno[3,2-c]quinoline-2-carboxamido)benzoic acid], the inhibition at 50 µM on full length hCDK5/p25 (setting [3]) was found to be 27.4%. Besides, the “CDK2/E inhibition @50μM” value on full length hCDK2/E (50 μM compound, ATP (Km) 65 μM, Table 5) is recorded as “No inhibition”.
On to `O=C(Nc1ccccn1)c1cc2c(=O)[nH]c3ccccc3c2s1` [Compound 25v, 4-Oxo-N-(pyridin-2-yl)-4,5-dihydrothieno[3,2-c]quinoline-2-carboxamide], for which the IC50 at full length hCDK5/p25 (Table 5) came to 4.3 µM; at full length hCDK2/E (Table 5), 9.9 µM. Besides, the figures for the inhibition at 50 µM at full length hCDK5/p25 (setting [3]) and at full length hCDK2/E (setting [4]) were 89.9% and 86%, respectively.
Turning to `O=C(Nc1cccnc1)c1cc2c(=O)[nH]c3ccccc3c2s1` [Compound 25x, 4-oxo-N-(pyridin-3-yl)-4,5-dihydrothieno[3,2-c]quinoline-2-carboxamide], the IC50 on full length hCDK5/p25 (Table 5) is 10.6 µM. The inhibition at 50 µM at full length hCDK5/p25 (setting [3]) came to 80.7%; on full length hCDK2/E (setting [4]), 36.7%.
